Consider six compounds from ChEMBL document CHEMBL5550200, “Back-Pocket Optimization of 2-Aminopyrimidine-Based Macrocycles Leads to Potent EPHA2/GAK Kinase Inhibitors” (J Med Chem, 2024).

Data set [1] can be described thus: Metabolic stability in Sprague-Dawley rat liver microsomes assessed as half life at 10 uM preincubated for 5 mins followed by NADPH regenerating system measured upto 60 min by HPLC analysis. The following applies: time < 65 min. Type of data set: ADME, Microsome.
Data set [2] addresses Fibroblast growth factor receptor 2 (Homo sapiens) (UniProt P21802).
Description: Induction of stabilization of recombinant FGFR2 (unknown origin) assessed as change in melting temperature by differential scanning fluorimetry assay
Data set [3] has as its target T1, Ephrin type-B receptor 3 (Homo sapiens) (UniProt P54753).
T1 sequence (whole entry): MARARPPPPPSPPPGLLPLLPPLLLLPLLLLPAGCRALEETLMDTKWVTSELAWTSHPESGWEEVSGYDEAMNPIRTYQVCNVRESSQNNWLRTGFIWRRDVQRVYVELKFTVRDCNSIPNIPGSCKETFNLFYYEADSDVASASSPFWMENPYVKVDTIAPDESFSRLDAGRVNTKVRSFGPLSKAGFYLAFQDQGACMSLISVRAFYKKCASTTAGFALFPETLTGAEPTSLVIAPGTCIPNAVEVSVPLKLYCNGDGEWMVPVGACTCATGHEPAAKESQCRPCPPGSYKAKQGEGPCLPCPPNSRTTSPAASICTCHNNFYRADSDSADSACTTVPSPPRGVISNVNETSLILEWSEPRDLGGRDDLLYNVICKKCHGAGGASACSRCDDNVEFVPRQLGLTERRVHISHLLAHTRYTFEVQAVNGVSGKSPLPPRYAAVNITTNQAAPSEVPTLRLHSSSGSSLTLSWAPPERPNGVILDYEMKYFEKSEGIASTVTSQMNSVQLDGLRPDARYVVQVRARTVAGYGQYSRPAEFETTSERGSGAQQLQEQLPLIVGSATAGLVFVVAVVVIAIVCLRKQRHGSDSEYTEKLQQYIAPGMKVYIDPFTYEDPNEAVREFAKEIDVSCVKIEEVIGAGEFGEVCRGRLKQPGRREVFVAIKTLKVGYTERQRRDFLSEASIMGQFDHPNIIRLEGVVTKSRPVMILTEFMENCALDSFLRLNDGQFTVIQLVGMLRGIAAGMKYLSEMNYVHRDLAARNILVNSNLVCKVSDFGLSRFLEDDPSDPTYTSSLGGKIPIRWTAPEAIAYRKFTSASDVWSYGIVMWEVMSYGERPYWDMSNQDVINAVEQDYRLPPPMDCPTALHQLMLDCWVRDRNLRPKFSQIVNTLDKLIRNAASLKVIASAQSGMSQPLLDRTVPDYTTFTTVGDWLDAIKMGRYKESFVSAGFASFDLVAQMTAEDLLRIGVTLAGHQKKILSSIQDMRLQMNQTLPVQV
The experiment in a line: Induction of stabilization of recombinant EPHB3 (unknown origin) assessed as change in melting temperature by differential scanning fluorimetry assay. In general terms: In DSF a fluorescence change marks the thermal transition of the protein.

Data set [4] deals with Ephrin type-A receptor 5 (Homo sapiens) (UniProt P54756).
Sequence of Ephrin type-A receptor 5 (Homo sapiens) (P54756 whole entry): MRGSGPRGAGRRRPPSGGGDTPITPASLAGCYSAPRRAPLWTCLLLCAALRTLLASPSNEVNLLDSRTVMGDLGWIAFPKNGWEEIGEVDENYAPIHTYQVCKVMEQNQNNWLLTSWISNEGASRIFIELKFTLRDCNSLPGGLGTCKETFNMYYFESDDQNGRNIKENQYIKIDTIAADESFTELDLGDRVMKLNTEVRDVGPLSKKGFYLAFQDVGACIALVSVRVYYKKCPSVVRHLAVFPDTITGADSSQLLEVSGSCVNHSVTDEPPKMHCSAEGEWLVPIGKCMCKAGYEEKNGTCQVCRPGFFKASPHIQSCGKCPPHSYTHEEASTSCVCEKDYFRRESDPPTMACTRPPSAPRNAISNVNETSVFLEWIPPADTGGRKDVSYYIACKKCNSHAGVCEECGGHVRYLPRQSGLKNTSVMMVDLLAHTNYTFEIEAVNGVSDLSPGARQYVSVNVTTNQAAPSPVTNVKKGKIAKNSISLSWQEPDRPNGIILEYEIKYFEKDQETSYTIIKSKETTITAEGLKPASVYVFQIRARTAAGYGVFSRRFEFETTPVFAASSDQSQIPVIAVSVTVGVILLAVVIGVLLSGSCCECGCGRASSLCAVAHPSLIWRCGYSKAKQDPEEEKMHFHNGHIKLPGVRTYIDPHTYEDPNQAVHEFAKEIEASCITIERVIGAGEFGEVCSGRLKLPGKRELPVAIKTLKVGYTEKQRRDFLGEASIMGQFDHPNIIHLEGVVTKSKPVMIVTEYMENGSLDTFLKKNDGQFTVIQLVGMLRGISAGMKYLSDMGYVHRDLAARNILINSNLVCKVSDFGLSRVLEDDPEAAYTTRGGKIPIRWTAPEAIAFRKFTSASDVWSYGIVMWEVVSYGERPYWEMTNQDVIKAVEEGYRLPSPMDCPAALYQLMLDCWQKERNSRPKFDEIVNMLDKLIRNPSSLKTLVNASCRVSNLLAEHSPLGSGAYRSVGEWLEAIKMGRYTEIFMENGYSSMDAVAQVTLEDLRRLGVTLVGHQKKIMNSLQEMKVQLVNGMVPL
Description: Induction of stabilization of recombinant EPHA5 (unknown origin) assessed as change in melting temperature by differential scanning fluorimetry assay
Data set [5] concerns the target T2, Ephrin type-A receptor 4 (Homo sapiens, UniProt P54764). The data set can be described thus: Induction of stabilization of recombinant EPHA4 (unknown origin) assessed as change in melting temperature by differential scanning fluorimetry assay.
The test system of a further data set is Huh-7. The experiment in a line: Cytotoxicity against human Huh-7 cells assessed as reduction in cell viability by alamar blue reagent based analysis. Type of data set: functional.
A short description of data set [6]: Metabolic stability in Sprague-Dawley rat liver microsomes assessed as parent compound remaining at 10 uM measured after 60 min by HPLC analysis. Type of data set: ADME, Microsome. The following applies: read-out: Stability. (In general: Microsomes from liver hold many membrane-bound enzymes, among them those of drug oxidation.)
In data set [7] the target is T3, Vascular endothelial growth factor receptor 1 (Homo sapiens, UniProt P17948). The data set can be described thus: Induction of stabilization of recombinant FLT1 (unknown origin) assessed as change in melting temperature by differential scanning fluorimetry assay.
The subject of the next data set is dengue virus type 2. The data set can be described thus: Antiviral activity against DENV-2 New Guinea C infected in human Huh-7 cells assessed as reduction in virus induced cytopathic effect preincubated with cells for 1 hr followed by viral infection and measured after 45 to 48 hrs by luciferase assay. The conditions noted are these: for EC90: time 45-48 hrs. Format: functional, organism-based. (Damage to the host cells serves as the signal in cytopathic effect assays.)

In data set [8] the target is T4, Fibroblast growth factor receptor 1 (Homo sapiens, UniProt P11362).
Target sequence in this assay (P11362 22-822 limits assumed): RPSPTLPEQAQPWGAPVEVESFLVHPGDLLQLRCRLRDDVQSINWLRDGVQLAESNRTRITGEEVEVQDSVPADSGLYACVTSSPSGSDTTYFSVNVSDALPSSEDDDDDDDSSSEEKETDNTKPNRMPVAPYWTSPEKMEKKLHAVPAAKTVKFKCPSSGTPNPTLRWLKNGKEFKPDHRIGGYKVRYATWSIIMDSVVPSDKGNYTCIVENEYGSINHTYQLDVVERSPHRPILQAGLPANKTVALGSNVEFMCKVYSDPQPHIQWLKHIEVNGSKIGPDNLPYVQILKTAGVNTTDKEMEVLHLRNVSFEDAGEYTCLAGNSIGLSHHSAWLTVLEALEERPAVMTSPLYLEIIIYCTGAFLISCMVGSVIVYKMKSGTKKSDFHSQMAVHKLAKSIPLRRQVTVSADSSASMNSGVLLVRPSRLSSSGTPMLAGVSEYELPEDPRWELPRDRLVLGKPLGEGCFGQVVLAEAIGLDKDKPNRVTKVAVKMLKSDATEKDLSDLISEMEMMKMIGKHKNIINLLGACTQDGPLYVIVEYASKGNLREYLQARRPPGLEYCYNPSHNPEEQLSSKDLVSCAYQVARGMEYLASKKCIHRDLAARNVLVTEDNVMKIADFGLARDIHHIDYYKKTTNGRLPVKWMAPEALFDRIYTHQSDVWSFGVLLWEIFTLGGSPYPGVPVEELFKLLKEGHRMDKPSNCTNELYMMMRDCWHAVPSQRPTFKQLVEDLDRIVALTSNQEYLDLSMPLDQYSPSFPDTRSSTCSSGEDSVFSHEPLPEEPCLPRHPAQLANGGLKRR
Description: Induction of stabilization of recombinant FGFR1 (unknown origin) assessed as change in melting temperature by differential scanning fluorimetry assay
Data set [9] deals with T5, Ephrin type-B receptor 1 (Homo sapiens) (UniProt P54762).
T5 sequence (whole entry): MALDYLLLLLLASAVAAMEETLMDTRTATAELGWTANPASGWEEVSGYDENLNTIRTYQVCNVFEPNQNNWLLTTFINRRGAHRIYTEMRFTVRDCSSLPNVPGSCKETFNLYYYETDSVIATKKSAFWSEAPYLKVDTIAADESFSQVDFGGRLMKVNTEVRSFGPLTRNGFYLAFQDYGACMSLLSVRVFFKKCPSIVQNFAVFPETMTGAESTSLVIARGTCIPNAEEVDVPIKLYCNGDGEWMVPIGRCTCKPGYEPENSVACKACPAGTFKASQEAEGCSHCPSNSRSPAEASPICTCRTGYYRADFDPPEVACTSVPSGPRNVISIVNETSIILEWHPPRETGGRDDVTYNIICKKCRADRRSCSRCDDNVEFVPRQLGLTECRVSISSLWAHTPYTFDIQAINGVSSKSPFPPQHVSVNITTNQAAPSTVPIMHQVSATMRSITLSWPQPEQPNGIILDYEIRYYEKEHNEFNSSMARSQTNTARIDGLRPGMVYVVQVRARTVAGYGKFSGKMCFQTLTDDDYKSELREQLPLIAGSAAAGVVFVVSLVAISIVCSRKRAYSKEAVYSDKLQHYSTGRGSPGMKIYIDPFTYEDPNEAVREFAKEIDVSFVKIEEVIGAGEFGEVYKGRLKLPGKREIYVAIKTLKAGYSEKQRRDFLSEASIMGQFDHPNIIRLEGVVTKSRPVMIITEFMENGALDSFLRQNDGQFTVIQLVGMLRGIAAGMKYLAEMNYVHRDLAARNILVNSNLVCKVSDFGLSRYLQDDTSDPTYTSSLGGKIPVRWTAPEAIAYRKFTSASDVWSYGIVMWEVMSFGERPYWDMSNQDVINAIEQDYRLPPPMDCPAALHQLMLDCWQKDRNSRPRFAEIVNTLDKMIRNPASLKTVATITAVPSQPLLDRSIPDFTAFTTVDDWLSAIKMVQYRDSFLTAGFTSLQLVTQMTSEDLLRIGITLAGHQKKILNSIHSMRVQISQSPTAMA
The data set can be described thus: Induction of stabilization of recombinant EPHB1 (unknown origin) assessed as change in melting temperature by differential scanning fluorimetry assay.

Data set [10] concerns the target Ephrin type-A receptor 7 (Homo sapiens) (UniProt Q15375). The experiment in a line: Induction of stabilization of recombinant EPHA7 (unknown origin) assessed as change in melting temperature by differential scanning fluorimetry assay.
Data set [11] is described as follows: Solubility of the compound measured after 24 hrs by HPLC/MS analysis. Type of data set: physicochemical.
In data set [12] the target is T4, Fibroblast growth factor receptor 1. The data set can be described thus: Inhibition of full length FGFR1 (unknown origin) expressed in HEK293T cells using NanoBRET NanoGlo substrate incubated for 2 hrs in presence of K10 tracer by NanoBRET assay. Type of data set: cell-based.
Data set [13] addresses T2, Ephrin type-A receptor 4. The data set can be described thus: Inhibition of full length EPHA4 (unknown origin) expressed in HEK293T cells using NanoBRET NanoGlo substrate incubated for 2 hrs in presence of K4 tracer by NanoBRET assay. Type of data set: cell-based.
In data set [14] the target is Tyrosine-protein kinase ABL1 (Homo sapiens, UniProt P00519). The experiment in a line: Inhibition of full length ABL1 (unknown origin) expressed in HEK293T cells using NanoBRET NanoGlo substrate incubated for 2 hrs in presence of K4 tracer by NanoBRET assay. Type of data set: cell-based.
The target in data set [15] is T3, Vascular endothelial growth factor receptor 1. The experiment in a line: Inhibition of full length FLT1 (unknown origin) expressed in HEK293T cells using NanoBRET NanoGlo substrate incubated for 2 hrs in presence of K9 tracer by NanoBRET assay. Format: cell-based.
Data set [16] concerns the target T6, Ephrin type-A receptor 2 (Homo sapiens, UniProt P29317).
Description: Induction of stabilization of recombinant EPHA2 (D596 to G900 residues) (unknown origin) expressed in Escherichia coli rosetta BL21(D3)-R3-pRARE2 competent cells assessed as change in melting temperature by differential scanning fluorimetry assay
For data set [17], the target named is T6, Ephrin type-A receptor 2. The source holds these as a separate data set.
Description: Binding affinity to recombinant his tagged EPHA2 (D596 to G900 residues) (unknown origin) expressed in Escherichia coli rosetta BL21(D3)-R3-pRARE2 competent cells assessed as dissociation constant by surface plasmon resonance method

Each structure is given as a SMILES string. Values after ≈ are worked out from the molar mass of the structure shown. Some results are limits rather than exact numbers.

Sequence of Ephrin type-A receptor 7 (Homo sapiens) (Q15375 28-998 limits assumed): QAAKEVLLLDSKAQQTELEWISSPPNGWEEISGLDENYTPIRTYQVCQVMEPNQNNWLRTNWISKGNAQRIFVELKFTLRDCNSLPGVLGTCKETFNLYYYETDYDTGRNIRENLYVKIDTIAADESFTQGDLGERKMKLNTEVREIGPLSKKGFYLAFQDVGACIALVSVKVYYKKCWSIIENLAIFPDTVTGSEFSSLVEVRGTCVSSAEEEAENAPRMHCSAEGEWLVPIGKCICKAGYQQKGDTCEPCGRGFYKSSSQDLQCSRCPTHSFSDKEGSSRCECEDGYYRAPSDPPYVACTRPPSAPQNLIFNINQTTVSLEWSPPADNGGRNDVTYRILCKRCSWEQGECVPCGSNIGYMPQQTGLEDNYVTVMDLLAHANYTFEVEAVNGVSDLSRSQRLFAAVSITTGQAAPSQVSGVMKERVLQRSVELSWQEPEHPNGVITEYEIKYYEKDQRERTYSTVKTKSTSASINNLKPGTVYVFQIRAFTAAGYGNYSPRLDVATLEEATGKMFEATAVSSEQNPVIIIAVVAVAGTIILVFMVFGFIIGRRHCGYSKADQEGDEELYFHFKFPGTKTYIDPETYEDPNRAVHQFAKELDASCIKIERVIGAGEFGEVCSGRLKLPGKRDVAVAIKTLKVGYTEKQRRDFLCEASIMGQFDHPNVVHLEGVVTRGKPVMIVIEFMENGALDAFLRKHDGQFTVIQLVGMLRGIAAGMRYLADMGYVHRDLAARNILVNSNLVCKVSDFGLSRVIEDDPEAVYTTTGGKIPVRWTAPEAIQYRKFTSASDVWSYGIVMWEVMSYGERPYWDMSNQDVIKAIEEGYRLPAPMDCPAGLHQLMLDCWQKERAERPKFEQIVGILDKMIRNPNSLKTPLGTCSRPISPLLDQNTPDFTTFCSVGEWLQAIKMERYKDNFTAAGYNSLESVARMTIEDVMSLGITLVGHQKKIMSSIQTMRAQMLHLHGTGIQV
T2 sequence (P54764 whole entry): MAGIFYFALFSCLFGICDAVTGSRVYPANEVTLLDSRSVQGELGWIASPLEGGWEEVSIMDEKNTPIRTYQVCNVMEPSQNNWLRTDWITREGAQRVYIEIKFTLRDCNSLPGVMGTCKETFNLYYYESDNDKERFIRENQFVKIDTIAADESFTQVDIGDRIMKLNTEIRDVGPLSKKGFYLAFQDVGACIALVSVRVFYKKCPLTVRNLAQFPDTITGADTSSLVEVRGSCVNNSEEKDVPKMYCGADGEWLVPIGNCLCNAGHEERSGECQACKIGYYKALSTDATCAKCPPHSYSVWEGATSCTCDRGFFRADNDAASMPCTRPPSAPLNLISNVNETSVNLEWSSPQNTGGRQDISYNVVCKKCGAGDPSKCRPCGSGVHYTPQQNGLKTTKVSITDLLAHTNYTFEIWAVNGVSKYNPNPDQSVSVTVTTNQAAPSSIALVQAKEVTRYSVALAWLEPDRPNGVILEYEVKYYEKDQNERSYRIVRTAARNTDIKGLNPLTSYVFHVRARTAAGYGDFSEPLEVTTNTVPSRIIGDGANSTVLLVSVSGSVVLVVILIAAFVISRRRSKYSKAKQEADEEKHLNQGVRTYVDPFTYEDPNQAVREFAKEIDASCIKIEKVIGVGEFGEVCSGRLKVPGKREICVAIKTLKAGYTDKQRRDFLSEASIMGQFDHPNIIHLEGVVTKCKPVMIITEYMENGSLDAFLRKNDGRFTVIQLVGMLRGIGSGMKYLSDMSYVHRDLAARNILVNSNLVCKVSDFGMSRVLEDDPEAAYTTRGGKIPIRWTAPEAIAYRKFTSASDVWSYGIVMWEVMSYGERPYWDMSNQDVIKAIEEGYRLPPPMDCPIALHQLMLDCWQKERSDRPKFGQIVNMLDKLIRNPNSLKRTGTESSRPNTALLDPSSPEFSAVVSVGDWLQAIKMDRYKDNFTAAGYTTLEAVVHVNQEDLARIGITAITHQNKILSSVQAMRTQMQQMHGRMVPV
Sequence of Fibroblast growth factor receptor 2 (Homo sapiens) (P21802 22-821 limits assumed): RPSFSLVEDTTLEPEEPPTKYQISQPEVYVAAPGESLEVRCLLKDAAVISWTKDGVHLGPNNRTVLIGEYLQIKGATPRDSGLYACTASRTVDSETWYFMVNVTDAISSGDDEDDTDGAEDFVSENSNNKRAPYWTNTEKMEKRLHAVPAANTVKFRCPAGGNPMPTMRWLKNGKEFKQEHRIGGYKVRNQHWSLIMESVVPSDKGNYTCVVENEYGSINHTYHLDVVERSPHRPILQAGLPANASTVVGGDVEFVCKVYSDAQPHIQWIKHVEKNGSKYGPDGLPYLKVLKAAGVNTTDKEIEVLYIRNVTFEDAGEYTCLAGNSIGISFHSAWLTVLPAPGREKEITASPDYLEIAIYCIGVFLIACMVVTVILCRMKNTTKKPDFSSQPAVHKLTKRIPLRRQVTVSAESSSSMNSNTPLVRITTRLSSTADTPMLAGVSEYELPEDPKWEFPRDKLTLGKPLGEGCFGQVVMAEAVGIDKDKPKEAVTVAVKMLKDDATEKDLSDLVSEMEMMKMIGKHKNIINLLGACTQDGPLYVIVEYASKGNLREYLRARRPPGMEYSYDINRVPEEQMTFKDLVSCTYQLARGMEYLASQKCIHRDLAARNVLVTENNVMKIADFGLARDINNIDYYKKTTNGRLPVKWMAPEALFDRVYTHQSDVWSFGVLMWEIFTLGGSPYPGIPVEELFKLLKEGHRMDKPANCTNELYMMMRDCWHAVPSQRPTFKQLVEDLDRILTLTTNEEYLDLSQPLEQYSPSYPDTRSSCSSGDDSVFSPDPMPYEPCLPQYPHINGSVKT

For orientation: half-life means how long it takes for the measured level to halve. As usually defined, the CC50 is the concentration that lowers cell viability or growth by half. The EC50 is the concentration needed to bring the measured effect to its halfway point. By EC90 is commonly meant the concentration needed for an effect of 90%. What is called solubility is the dissolved amount per volume that the medium holds. High values mean much dissolved substance, low ones little dissolved substance. Regarding `COc1cc(-c2cnc3nc2NCCCNS(=O)(=O)c2cccc(c2)N3)ccc1Br`, in [1], the half-life at 10 µM was 4.6 h. The deltaTm in data set [2] stood at 2.4 K; in data set [3], 4 K; in data set [4], 5 K; at Ephrin type-A receptor 4 [5] it was 3.2 K; in data set [7] it was 2.6 K; in data set [8] it was 1.8 K. In addition, the deltaTm was determined as 2.8 K in data set [9] and 0.1 K in data set [10]. Moreover, the half-maximal cytotoxic concentration (CC50) in the data set with Huh-7 is > 10 µM. In addition, in data set [6], the remaining at 1 h, 10 µM was determined as 87%. Further, the EC50 with dengue virus type 2 was determined as 5.3 µM. The EC90 in the data set on dengue virus type 2 was 9.8 µM. For the same compound, the solubility at 24 h in [11] worked out at 2.24 µg/mL (≈ 4.57 µM).
For the compound `COc1cc(-c2cnc3nc2NCCCNS(=O)(=O)c2cc(ccc2OC)N3)ccc1F`, the deltaTm is 3.4 K in [2]; 1.6 K in data set [3]; 4.7 K in data set [4]; 4.4 K at Ephrin type-A receptor 4 [5]; 1.3 K in data set [7]; 2 K in [8]. Besides, the deltaTm in [9] came out at 3.1 K; in data set [10] it was 1 K. Moreover, the CC50 in the data set on Huh-7 is > 10 µM. The half-maximal effective concentration (EC50) in the data set on dengue virus type 2 was > 10 µM. The EC90 with dengue virus type 2 was > 10 µM.
On to `COc1cc(-c2cnc3nc2NCCCNS(=O)(=O)c2cccc(c2)N3)ccc1F`, for which the half-life at 10 µM in data set [1] was 6.6 h. Moreover, the deltaTm stood at 4.4 K in [2]; 5.6 K in data set [3]; 5.4 K in data set [4]; 3.6 K on Ephrin type-A receptor 4 [5]; 6.3 K in [7]; 3.3 K in [8]. In addition, the deltaTm in [9] stood at 4.3 K; in [10], 0.3 K. In the data set on Huh-7, the CC50 is > 10 µM. In addition, the EC50 in the data set on dengue virus type 2 was > 10 µM. Besides, in the data set with dengue virus type 2, the EC90 was > 10 µM.
Consider `O=C(Nc1ccccc1Cl)c1cnc2ccc(C3CCNCC3)cn12`, for which the CC50 in the data set with Huh-7 is > 10 µM. Further, the concentration giving a half-maximal response (EC50) was 6.5 µM in the data set with dengue virus type 2; > 50 µM in data set [12]; 0.048 µM at Ephrin type-A receptor 4 [13]; 49 µM in data set [14]; > 50 µM in data set [15]. The EC90 in the data set with dengue virus type 2 is > 10 µM.
`CCNc1nc(Nc2cccc(S(=O)(=O)NC)c2)ncc1-c1ccc(F)c(OC)c1` showed a deltaTm on Ephrin type-A receptor 2 [16] of 4.2 K. Also, the Kd entry on Ephrin type-A receptor 2 [17] is “Not Active”.
`COCCOc1ccc2cc1S(=O)(=O)NCCCNc1nc(ncc1-c1ccc(F)c(OC)c1)N2`: the deltaTm was found to be 4.5 K in [2]; 3.1 K in [3]; 5.4 K in [4]; 4.5 K at Ephrin type-A receptor 4 [5]; 1.8 K in [7]; 2.5 K in data set [8]. In addition, the values for the deltaTm in data set [9] and in data set [10] were 2.6 K and 1 K, respectively. In the data set with Huh-7, the cytotoxic concentration (CC50) is > 10 µM. For the same compound, the EC50 with dengue virus type 2 is > 10 µM. Moreover, the EC90 in the data set on dengue virus type 2 is > 10 µM.
